Columns and labels:
KRAS WT = target: T1, KRAS WT (Homo sapiens, UniProt P01116); experiment: HTRF nucleotide exchange assay, KRAS WT; type: biochemical; details: HTRF nucleotide exchange assay (NEA), class symbols
T1 construct: aa1-188 KRAS WT

KRAS G12D = target: T2, KRAS G12D (Homo sapiens, UniProt P01116, G12D); experiment: HTRF nucleotide exchange assay, KRAS G12D; type: biochemical; details: HTRF nucleotide exchange assay (NEA), class symbols
T2 construct: aa1-188 KRAS WT, HRAS WT, NRAS WT, or KRAS containing the G12D
T2 sequence (P01116 1-188 isoform P01116-2 G12D): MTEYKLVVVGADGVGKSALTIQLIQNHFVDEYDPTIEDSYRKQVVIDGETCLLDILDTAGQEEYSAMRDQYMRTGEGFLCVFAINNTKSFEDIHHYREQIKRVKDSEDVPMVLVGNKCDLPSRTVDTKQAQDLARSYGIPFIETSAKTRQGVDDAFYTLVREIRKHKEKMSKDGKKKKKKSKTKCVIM

T1 sequence (P01116 1-188 isoform P01116-2): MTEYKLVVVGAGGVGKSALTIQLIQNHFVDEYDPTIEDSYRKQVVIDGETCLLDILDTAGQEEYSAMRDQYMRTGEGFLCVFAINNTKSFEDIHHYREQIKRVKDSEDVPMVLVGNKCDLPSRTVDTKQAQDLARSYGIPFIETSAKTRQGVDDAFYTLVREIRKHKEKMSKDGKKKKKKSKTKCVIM

IC50 (KRAS WT) [nM] | IC50 (KRAS G12D) [nM] | SMILES
≤ 10 | ≤ 10 | CCc1c(F)ccc2cc(O)cc(-c3c(C)c4nc(OCC5(C)CC(O)CN5)nc(N5CCOCC(C)(O)C5)c4c4cn(C)nc34)c12 (centres unmarked) [Example 145, 4-[4-(8-ethyl-7-fluoro-3-hydroxy-1-naphthyl)-7-[(4-hydroxy-2-methyl-pyrrolidin-2-yl)methoxy]-2,5-dimethyl-pyrazolo[4,3-f]quinazolin-9-yl]-6-methyl-1,4-oxazepan-6-ol]
≤ 10 | ≤ 10 | CCc1c(F)ccc2cc(O)cc(-c3c(C)c4nc(OCC5(CN6CCCC6)CC5)nc(N5CCOCC(C)(O)C5)c4c4cn(C)nc34)c12 (centres unmarked) [Example 146, 4-[4-(8-ethyl-7-fluoro-3-hydroxy-1-naphthyl)-2,5-dimethyl-7-[[1-(pyrrolidin-1-ylmethyl)cyclopropyl]methoxy]pyrazolo[4,3-f]quinazolin-9-yl]-6-methyl-1,4-oxazepan-6-ol]
≤ 10 | ≤ 10 | CCc1c(F)ccc2cc(O)cc(-c3c(C)c4nc(OCC56CCCN5CCC6)nc(N5CCOCC(C)(O)C5)c4c4cn(C)nc34)c12 (centres unmarked) [Example 147, 4-[4-(8-ethyl-7-fluoro-3-hydroxy-1-naphthyl)-7-(1,2,3,5,6,7-hexahydropyrrolizin-8-ylmethoxy)-2,5-dimethyl-pyrazolo[4,3-f]quinazolin-9-yl]-6-methyl-1,4-oxazepan-6-ol]
≤ 10 | ≤ 10 | CCc1c(F)ccc2cc(O)cc(-c3c(C)c4nc(OC[C@]5(C)CCCN5C)nc(N5CCOCC(C)(O)C5)c4c4cn(C)nc34)c12 (stereo partly drawn) [Example 148, 4-[4-(8-ethyl-7-fluoro-3-hydroxy-1-naphthyl)-2,5-dimethyl-7-[[(2S)-1,2-dimethylpyrrolidin-2-yl]methoxy]pyrazolo[4,3-f]quinazolin-9-yl]-6-methyl-1,4-oxazepan-6-ol]
≤ 10 | ≤ 10 | CCc1c(F)ccc2cc(O)cc(-c3c(C)c4nc(OCC5(CN6CCOCC6)CC5)nc(N5CCOCC(C)(O)C5)c4c4cn(C)nc34)c12 (centres unmarked) [Example 149, 4-[4-(8-ethyl-7-fluoro-3-hydroxy-1-naphthyl)-2,5-dimethyl-7-[[1-(morpholinomethyl)cyclopropyl]methoxy]pyrazolo[4,3-f]quinazolin-9-yl]-6-methyl-1,4-oxazepan-6-ol]
≤ 10 | ≤ 10 | CCc1c(F)ccc2cc(O)cc(-c3c(F)c4nc(OC[C@@H]5C[C@@H](F)CN5)nc(N5CCOCC(C)(O)C5)c4c4cn(C)nc34)c12 (stereo partly drawn) [Example 150, 4-[4-(8-ethyl-7-fluoro-3-hydroxy-1-naphthyl)-5-fluoro-2-methyl-7-[[(2S,4R)-4-fluoropyrrolidin-2-yl]methoxy]pyrazolo[4,3-f]quinazolin-9-yl]-6-methyl-1,4-oxazepan-6-ol]
≤ 10 | ≤ 10 | CCc1c(F)ccc2cc(O)cc(-c3c(F)c4nc(OCC5(C)CC(OC)CN5)nc(N5CCOCC(C)(O)C5)c4c4cn(C)nc34)c12 (centres unmarked) [Example 151, 4-[4-(8-ethyl-7-fluoro-3-hydroxy-1-naphthyl)-5-fluoro-7-[(4-methoxy-2-methyl-pyrrolidin-2-yl)methoxy]-2-methyl-pyrazolo[4,3-f]quinazolin-9-yl]-6-methyl-1,4-oxazepan-6-ol]
≤ 10 | ≤ 10 | CCc1c(F)ccc2cc(O)cc(-c3c(F)c4nc(OCC5(C)CC(O)CN5)nc(N5CCOCC(C)(O)C5)c4c4cn(C)nc34)c12 (centres unmarked) [Example 152, 4-[4-(8-ethyl-7-fluoro-3-hydroxy-1-naphthyl)-5-fluoro-7-[(4-hydroxy-2-methyl-pyrrolidin-2-yl)methoxy]-2-methyl-pyrazolo[4,3-f]quinazolin-9-yl]-6-methyl-1,4-oxazepan-6-ol]
≤ 10 | ≤ 10 | CCc1c(F)ccc2cc(O)cc(-c3c(F)c4nc(OC[C@@H]5CCCN5C)nc(N5CCOCC(C)(O)C5)c4c4cn(C)nc34)c12 (stereo partly drawn) [Example 154, 4-[4-(8-ethyl-7-fluoro-3-hydroxy-1-naphthyl)-5-fluoro-2-methyl-7-[[(2S)-1-methylpyrrolidin-2-yl]methoxy]pyrazolo[4,3-f]quinazolin-9-yl]-6-methyl-1,4-oxazepan-6-ol]
≤ 10 | ≤ 10 | CCc1c(F)ccc2cc(O)cc(-c3c(F)c4nc(OCC5(CN6CCCC6)CC5)nc(N5CCOCC(C)(O)C5)c4c4cn(C)nc34)c12 (centres unmarked) [Example 155, 4-[4-(8-ethyl-7-fluoro-3-hydroxy-1-naphthyl)-5-fluoro-2-methyl-7-[[1-(pyrrolidin-1-ylmethyl)cyclopropyl]methoxy]pyrazolo[4,3-f]quinazolin-9-yl]-6-methyl-1,4-oxazepan-6-ol]
≤ 10 | ≤ 10 | CCc1c(F)ccc2cc(O)cc(-c3c(F)c4nc(OC[C@@H]5CCN5)nc(N5CCOCC(C)(O)C5)c4c4cn(C)nc34)c12 (stereo partly drawn) [Example 156, 4-[4-(8-ethyl-7-fluoro-3-hydroxy-1-naphthyl)-5-fluoro-2-methyl-7-[[(2S)-azetidin-2-yl]methoxy]pyrazolo[4,3-f]quinazolin-9-yl]-6-methyl-1,4-oxazepan-6-ol]
≤ 10 | ≤ 10 | CCc1c(F)ccc2cc(O)cc(-c3c(F)c4nc(OCC5(CN(C)C)CC5)nc(N5CCOCC(C)(O)C5)c4c4cn(C)nc34)c12 (centres unmarked) [Example 157, 4-[7-[[1-[(dimethylamino)methyl]cyclopropyl]methoxy]-4-(8-ethyl-7-fluoro-3-hydroxy-1-naphthyl)-5-fluoro-2-methyl-pyrazolo[4,3-f]quinazolin-9-yl]-6-methyl-1,4-oxazepan-6-ol]
≤ 10 | ≤ 10 | CCc1c(F)ccc2cc(O)cc(-c3c(F)c4nc(OC[C@@H]5CCN5C)nc(N5CCOCC(C)(O)C5)c4c4cn(C)nc34)c12 (stereo partly drawn) [Example 158, 4-[4-(8-ethyl-7-fluoro-3-hydroxy-1-naphthyl)-5-fluoro-2-methyl-7-[[(2S)-1-methylazetidin-2-yl]methoxy]pyrazolo[4,3-f]quinazolin-9-yl]-6-methyl-1,4-oxazepan-6-ol]
≤ 10 | ≤ 10 | CCc1c(F)ccc2cc(O)cc(-c3c(F)c4nc(OC[C@]5(C)CCCN5)nc(N5CCOCC(C)(O)C5)c4c4cn(C)nc34)c12 (stereo partly drawn) [Example 159, 4-[4-(8-ethyl-7-fluoro-3-hydroxy-1-naphthyl)-5-fluoro-2-methyl-7-[[(2S)-2-methylpyrrolidin-2-yl]methoxy]pyrazolo[4,3-f]quinazolin-9-yl]-6-methyl-1,4-oxazepan-6-ol]
≤ 10 | ≤ 10 | CCc1c(F)ccc2cc(O)cc(-c3c(F)c4nc(OCC56CCCN5CCC6)nc(N5CCOCC(C)(O)C5)c4c4cn(C)nc34)c12 (centres unmarked) [Example 160, 4-[4-(8-ethyl-7-fluoro-3-hydroxy-1-naphthyl)-5-fluoro-7-(1,2,3,5,6,7-hexahydropyrrolizin-8-ylmethoxy)-2-methyl-pyrazolo[4,3-f]quinazolin-9-yl]-6-methyl-1,4-oxazepan-6-ol]
≤ 10 | ≤ 10 | CCc1c(F)ccc2cc(O)cc(-c3c(F)c4nc(OC[C@]5(C)CCCN5C)nc(N5CCOCC(C)(O)C5)c4c4cn(C)nc34)c12 (stereo partly drawn) [Example 161, 4-[4-(8-ethyl-7-fluoro-3-hydroxy-1-naphthyl)-5-fluoro-2-methyl-7-[[(2S)-1,2-dimethylpyrrolidin-2-yl]methoxy]pyrazolo[4,3-f]quinazolin-9-yl]-6-methyl-1,4-oxazepan-6-ol]
≤ 10 | ≤ 10 | CCc1c(F)ccc2cc(O)cc(-c3c(F)c4nc(OCC5(CN6CCOCC6)CC5)nc(N5CCOCC(C)(O)C5)c4c4cn(C)nc34)c12 (centres unmarked) [Example 162, 4-[4-(8-ethyl-7-fluoro-3-hydroxy-1-naphthyl)-5-fluoro-2-methyl-7-[[1-(morpholinomethyl)cyclopropyl]methoxy]pyrazolo[4,3-f]quinazolin-9-yl]-6-methyl-1,4-oxazepan-6-ol]
≤ 10 | ≤ 10 | CCc1c(F)ccc2cc(O)cc(-c3c(F)c4nc(OCC5(CF)COC5)nc(N5CCOCC(C)(O)C5)c4c4cn(C)nc34)c12 (centres unmarked) [Example 163, 4-[4-(8-ethyl-7-fluoro-3-hydroxy-1-naphthyl)-5-fluoro-7-[[3-(fluoromethyl)oxetan-3-yl]methoxy]-2-methyl-pyrazolo[4,3-f]quinazolin-9-yl]-6-methyl-1,4-oxazepan-6-ol]
10 to 100 | ≤ 10 | CCc1c(F)ccc2cc(O)cc(-c3c(F)c4nc(OCC5(C#N)CCOC5)nc(N5CCOCC(C)(O)C5)c4c4cn(C)nc34)c12 (centres unmarked) [Example 164, 3-[[4-(8-ethyl-7-fluoro-3-hydroxy-1-naphthyl)-5-fluoro-9-(6-hydroxy-6-methyl-1,4-oxazepan-4-yl)-2-methyl-pyrazolo[4,3-f]quinazolin-7-yl]oxymethyl]tetrahydrofuran-3-carbonitrile]
10 to 100 | ≤ 10 | CCc1c(F)ccc2cc(O)cc(-c3c(F)c4nc(OCC56COC(COC)(C5)C6)nc(N5CCOCC(C)(O)C5)c4c4cn(C)nc34)c12 (centres unmarked) [Example 165, 4-[4-(8-ethyl-7-fluoro-3-hydroxy-1-naphthyl)-5-fluoro-7-[[1-(methoxymethyl)-2-oxabicyclo[2.1.1]hexan-4-yl]methoxy]-2-methyl-pyrazolo[4,3-f]quinazolin-9-yl]-6-methyl-1,4-oxazepan-6-ol]
≤ 10 | ≤ 10 | CCc1c(F)ccc2cc(O)cc(-c3c(F)c4nc(OCC5(CN(CC)CC)CC5)nc(N5CCOCC(C)(O)C5)c4c4cn(C)nc34)c12 (centres unmarked) [Example 166, -[7-[[1-(diethylaminomethyl)cyclopropyl]methoxy]-4-[8-ethyl-7-fluoro-3-(methoxymethoxy)-1-naphthyl]-5-fluoro-2-methyl-pyrazolo[4,3-f]quinazolin-9-yl]-6-methyl-1,4-oxazepan-6-ol]
100 to 10000 | ≤ 10 | CCc1c(F)ccc2cc(O)cc(-c3c(F)c4nc(OCC5(CF)COC5)nc(N5CC6CCC(C5)N6)c4c4cn(C)nc34)c12 [Example 167, 4-[9-(3,8-diazabicyclo[3.2.1]octan-3-yl)-5-fluoro-7-[[3-(fluoromethyl)oxetan-3-yl]methoxy]-2-methyl-pyrazolo[4,3-f]quinazolin-4-yl]-5-ethyl-6-fluoro-naphthalen-2-ol]
